# Laboratory results published in patent US20260266798A1, “SYSTEMS AND METHODS REGARDING PEAK EXPLORATION AND ARTIFICIAL TISSUE RESPONSE INCLUDING FOR CONTRACTION TYPE CLASSIFICATION OF ENGINEERED TISSUE” (VALO HEALTH, INC., priority 2023, published 2026).
# System: artificial tissue
# Assay: Contraction type classification (single/double) of contractile force waveforms of artificial tissue under baseline and perturbed conditions (FIG. 27)
# Format: cell-based
# Conditions: functional response = contractile force; first and second (increasing) dose of isoproterenol vs reference/control conditions; shown most clearly at the second dose
# Description: The waveforms comprise functional responses (contractile force) of an artificial tissue under baseline conditions and two perturbed conditions. Examples of perturbed conditions are treatment of a tissue with a drug or compound, different cell lines, different disease states, physical perturbation of the artificial tissue, changes made to the platform or bioreactor containing the artificial tissue, and the like. The baseline waveform 2702, the first perturbed waveform 2704, and the second perturbed waveform 2706 are associated with a baseline classification vector 2708, a first perturbed classification vector 2710, and a second perturbed classification vector 2712 respectively. […]
# The classification vectors (e.g., the baseline classification vector 2708) are obtained by extracting a plurality of functional response waveforms from each waveform (as described in more detail below in relation to FIG. 33) and then determining a contraction type for each functional response waveform using a prediction model (e.g., the prediction model 600 described above in relation to FIGS. 6 and 7). […] In contrast, the third classification value 2720 is a double contraction type (as indicated by the dark gray shading) because the associated functional response waveform 2724 is determined by the prediction model to contain a double contraction. […]
smiles,measurement,value
CC(C)NCC(O)c1ccc(O)c(O)c1 (stereo not shown) [isoproterenol],contraction type classification vector of the perturbed waveforms compared to the baseline classification vector,induces regular double contractions of the artificial tissue
